pEC50: −log10 of the molar value. *1 amine or outer side, *2 acyl side, *3 side chain or, on linkers, in order; H or OH if unused. Where a SMILES comes first, the peptide text is derived from it. Side-chain parts run from the residue outwards. The star is where a group is joined. C18 diacid = O=C(O)CCCCCCCCCCCCCCCCC(=O)*; γGlu = O=C(O)[C@H](CCC(=O)[*:2])N[*:1]; AEEA = NCCOCCOCC(=O)O
How the values were obtained:
mGLP-1R = target: T1, mGLP-1R (Mus musculus, UniProt O35659); assay: GLP-1R agonist activity, cAMP in transfected HEK293 cells; type: cell-based
T1 construct: expressed in transfected cells; host or cells: HEK293
T1 sequence (O35659 22-463): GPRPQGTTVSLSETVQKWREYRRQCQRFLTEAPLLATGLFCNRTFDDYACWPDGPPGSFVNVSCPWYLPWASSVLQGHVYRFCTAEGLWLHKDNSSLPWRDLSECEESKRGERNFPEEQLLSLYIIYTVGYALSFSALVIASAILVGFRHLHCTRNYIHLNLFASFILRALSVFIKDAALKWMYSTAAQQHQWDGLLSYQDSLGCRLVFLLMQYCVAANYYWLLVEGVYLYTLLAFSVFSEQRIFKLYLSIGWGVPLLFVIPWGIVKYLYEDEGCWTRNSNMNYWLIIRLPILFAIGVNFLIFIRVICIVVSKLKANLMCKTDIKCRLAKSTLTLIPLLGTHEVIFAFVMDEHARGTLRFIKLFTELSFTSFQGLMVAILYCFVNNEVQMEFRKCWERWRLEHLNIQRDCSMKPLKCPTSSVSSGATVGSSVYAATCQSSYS

ob/ob mice = assay: Blood glucose reducing experiment, single subcutaneous injection in ob/ob mice; type: in vivo; details: 100 μg/kg single s.c.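 Also: random blood glucose read at each time point, decrease rate given as percentage fall versus the model control group.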
[1] = Effect on random weight of ob/ob mice after single subcutaneous injection; type: in vivo; details: 100 μg/kg single s.c., X ± s, n = 7
Protocol: The mice in each group received random blood glucose value measurement before (0 h) administration and 2, 4, 6, 10 and 24 h after administration, and then the time for measuring the random blood glucose was adjusted and prolonged to 34, 48, 58 or 72 h after administration according to the blood glucose condition of the mice in each group. Meanwhile, the random weight of the mice in each group before (0 h) administration and 24 h after administration was weighed, and then the random weight of the mice corresponding to the random blood glucose measurement condition 48 or 72 h after administration was weighed.

mGIPR = target: T2, mGIPR (Mus musculus, UniProt Q0P543); assay: GIPR agonist activity, cAMP in transfected HEK293 cells; type: cell-based
T2 construct: expressed in transfected cells; host or cells: HEK293
T2 sequence (Q0P543 19-460): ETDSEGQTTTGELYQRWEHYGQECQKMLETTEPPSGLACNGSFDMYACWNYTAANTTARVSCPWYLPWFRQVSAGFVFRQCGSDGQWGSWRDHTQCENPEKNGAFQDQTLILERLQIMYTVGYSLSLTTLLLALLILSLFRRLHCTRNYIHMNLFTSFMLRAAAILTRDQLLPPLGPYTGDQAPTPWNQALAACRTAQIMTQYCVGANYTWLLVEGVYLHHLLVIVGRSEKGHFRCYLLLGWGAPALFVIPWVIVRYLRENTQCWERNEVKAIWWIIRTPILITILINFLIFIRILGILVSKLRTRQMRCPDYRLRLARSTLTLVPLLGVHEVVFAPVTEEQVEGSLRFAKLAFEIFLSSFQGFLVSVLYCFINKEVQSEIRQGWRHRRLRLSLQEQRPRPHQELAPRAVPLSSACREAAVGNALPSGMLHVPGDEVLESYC
Protocol: HEK293 cells were co-transfected with cDNA encoding GLP-1R or GIPR. In a test for determining the compound, the cells were inoculated in a 96-well plate 2 h in advance, the polypeptide compound was dissolved with DMSO, and diluted to different multiples with a culture medium containing 0.1% bovine serum albumin and added to the co-transfected cells.

In the case of `CC[C@H](C)[C@H](NC(=O)[C@H](CC(C)C)NC(=O)[C@H](Cc1c[nH]c2ccccc12)NC(=O)[C@H](CCC(N)=O)NC(=O)[C@@H](NC(=O)[C@H](Cc1ccccc1)NC(=O)[C@H](C)NC(=O)[C@H](CCCCNC(=O)COCCOCCNC(=O)COCCOCCNC(=O)CC[C@H](NC(=O)CCCCCCCCCCCCCCCCC(=O)O)C(=O)O)NC(=O)[C@H](CCC(N)=O)NC(=O)[C@H](C)NC(=O)[C@@H](NC(=O)[C@H](CCCCN)NC(=O)[C@H](CC(=O)O)NC(=O)[C@H](CC(C)C)NC(=O)[C@@H](NC(=O)[C@@H](NC(=O)[C@H](CO)NC(=O)[C@H](Cc1ccc(O)cc1)NC(=O)[C@H](CC(=O)O)NC(=O)[C@H](CO)NC(=O)[C@@H](NC(=O)[C@H](Cc1ccccc1)NC(=O)[C@@H](NC(=O)CNC(=O)[C@H](CCC(=O)O)NC(=O)[C@@H](NC(=O)[C@@H](N)Cc1ccc(O)cc1)C(C)C)[C@@H](C)O)[C@@H](C)O)[C@@H](C)CC)C(C)C)[C@@H](C)CC)C(C)C)C(=O)N[C@@H](C)C(=O)NCC(=O)NCC(=O)N1CCC[C@H]1C(=O)N[C@@H](CO)C(=O)N[C@@H](CO)C(=O)NCC(=O)N[C@@H](C)C(=O)N1CCC[C@H]1C(=O)N1CCC[C@H]1C(=O)N1CCC[C@H]1C(=O)N[C@@H](CO)C(N)=O` [ID NO: 1] (H-YVEGTFTSDYSIVLDKIAQK([AEEA-AEEA-γGlu-C18 diacid])AFVQWLIAGGPSSGAPPPS-NH2), the pEC50 (mGLP-1R) was 10.84, the “Blood glucose at different time after administration, 0 h” value (ob/ob mice; 0 h (before administration), X ± s, n = 7) was 20.31 ± 0.99 mmol/L and the “Decrease rate of blood glucose at different time after administration, 2 h” value (ob/ob mice; 2 h) was 50.2%. The “Blood glucose at different time after administration, 2 h” value (ob/ob mice; 2 h, X ± s, n = 7) was 10.12 ± 0.87 mmol/L, the “Decrease rate of blood glucose at different time after administration, 4 h” value (ob/ob mice; 4 h) was 51.1% and the “Blood glucose at different time after administration, 4 h” value (ob/ob mice; 4 h, X ± s, n = 7) was 9.94 ± 0.86 mmol/L. For the same compound, the “Decrease rate of blood glucose at different time after administration, 6 h” value (ob/ob mice; 6 h) was 51.6%, the “Blood glucose at different time after administration, 6 h” value (ob/ob mice; 6 h, X ± s, n = 7) was 9.83 ± 0.87 mmol/L and the “Decrease rate of blood glucose at different time after administration, 10 h” value (ob/ob mice; 10 h) was 47.0%. The “Blood glucose at different time after administration, 10 h” value (ob/ob mice; 10 h, X ± s, n = 7) was 10.76 ± 1.12 mmol/L, the “Decrease rate of blood glucose at different time after administration, 24 h” value (ob/ob mice; 24 h) was 41.5% and the “Blood glucose at different time after administration, 24 h” value (ob/ob mice; 24 h, X ± s, n = 7) was 11.89 ± 2.12 mmol/L. For the same compound, the “Decrease rate of blood glucose at different time after administration, 34 h” value (ob/ob mice; 34 h) was 31.4%, the “Blood glucose at different time after administration, 34 h” value (ob/ob mice; 34 h, X ± s, n = 7) was 13.93 ± 1.01 mmol/L and the “Decrease rate of blood glucose at different time after administration, 48 h” value (ob/ob mice; 48 h) was 14.7%. The “AUC0-24 h Glu” value (ob/ob mice; blood glucose curve area within 24 h, X ± s, n = 7) was 269.99 ± 19.45 mmol·h/L, the “AUC0-24 h Glu Decrease rate” value (ob/ob mice; versus model control group) was 47.1% and the “Changes of random body weight at different time after administration, 0 h” value ([1]; 0 h) was 0.0 ± 0.0 g. The “Random body weight at different time after administration, 0 h” value ([1]; 0 h) was 43.2 ± 0.5 g, the “Changes of random body weight at different time after administration, 24 h” value ([1]; 24 h) was -1.1 ± 0.2 g and the “Random body weight at different time after administration, 24 h” value ([1]; 24 h) was 42.0 ± 0.5 g. For the same compound, the “Changes of random body weight at different time after administration, 48 h” value ([1]; 48 h) was -0.6 ± 0.1 g and the “Random body weight at different time after administration, 48 h” value ([1]; 48 h) was 42.7 ± 0.6 g.

Work on `CC[C@H](C)[C@H](NC(=O)[C@H](CC(C)C)NC(=O)[C@H](Cc1c[nH]c2ccccc12)NC(=O)[C@H](CCC(N)=O)NC(=O)[C@@H](NC(=O)[C@H](Cc1ccccc1)NC(=O)[C@H](C)NC(=O)[C@H](CCCCNC(=O)COCCOCCNC(=O)COCCOCCNC(=O)CC[C@H](NC(=O)CCCCCCCCCCCCCCCCC(=O)O)C(=O)O)NC(=O)[C@H](CCC(N)=O)NC(=O)[C@H](C)NC(=O)[C@@H](NC(=O)[C@H](CCCCN)NC(=O)[C@H](CC(=O)O)NC(=O)[C@H](CC(C)C)NC(=O)C1(NC(=O)[C@@H](NC(=O)[C@H](CO)NC(=O)[C@H](Cc2ccc(O)cc2)NC(=O)[C@H](CC(=O)O)NC(=O)[C@H](CO)NC(=O)[C@@H](NC(=O)[C@H](Cc2ccccc2)NC(=O)[C@@H](NC(=O)CNC(=O)[C@H](CCC(=O)O)NC(=O)C2(NC(=O)[C@@H](N)Cc3ccc(O)cc3)CCC2)[C@@H](C)O)[C@@H](C)O)[C@@H](C)CC)CCC1)[C@@H](C)CC)C(C)C)C(=O)N[C@@H](C)C(=O)NCC(=O)NCC(=O)N1CCC[C@H]1C(=O)N[C@@H](CO)C(=O)N[C@@H](CO)C(=O)NCC(=O)N[C@@H](C)C(=O)N1CCC[C@H]1C(=O)N1CCC[C@H]1C(=O)N1CCC[C@H]1C(=O)N[C@@H](CO)C(N)=O` [ID NO: 2] yielded a pEC50 (mGLP-1R) of 11.21.

In the case of `CC[C@H](C)[C@H](NC(=O)[C@H](CC(C)C)NC(=O)[C@H](Cc1c[nH]c2ccccc12)NC(=O)[C@H](CCC(N)=O)NC(=O)[C@@H](NC(=O)[C@H](Cc1ccccc1)NC(=O)[C@H](C)NC(=O)[C@H](CCCCNC(=O)COCCOCCNC(=O)COCCOCCNC(=O)CC[C@H](NC(=O)CCCCCCCCCCCCCCCCC(=O)O)C(=O)O)NC(=O)[C@H](CCC(N)=O)NC(=O)[C@H](C)NC(=O)[C@@H](NC(=O)[C@H](CCCCN)NC(=O)[C@H](CC(=O)O)NC(=O)[C@H](CC(C)C)NC(=O)C1(NC(=O)[C@@H](NC(=O)[C@H](CO)NC(=O)[C@H](Cc2ccc(O)cc2)NC(=O)[C@H](CC(=O)O)NC(=O)[C@H](CO)NC(=O)[C@@H](NC(=O)[C@H](Cc2ccccc2)NC(=O)[C@@H](NC(=O)CNC(=O)[C@H](CCC(=O)O)NC(=O)C2(NC(=O)[C@@H](N)Cc3ccc(O)cc3)CCCC2)[C@@H](C)O)[C@@H](C)O)[C@@H](C)CC)CCCC1)[C@@H](C)CC)C(C)C)C(=O)N[C@@H](C)C(=O)NCC(=O)NCC(=O)N1CCC[C@H]1C(=O)N[C@@H](CO)C(=O)N[C@@H](CO)C(=O)NCC(=O)N[C@@H](C)C(=O)N1CCC[C@H]1C(=O)N1CCC[C@H]1C(=O)N1CCC[C@H]1C(=O)N[C@@H](CO)C(N)=O` [ID NO: 3], the pEC50 (mGLP-1R) was 11.40 and the pEC50 (mGIPR) was 11.83.

In the case of `CC[C@H](C)[C@H](NC(=O)[C@H](CC(C)C)NC(=O)[C@H](Cc1c[nH]c2ccccc12)NC(=O)[C@H](CCC(N)=O)NC(=O)[C@@H](NC(=O)[C@H](Cc1ccccc1)NC(=O)[C@H](C)NC(=O)[C@H](CCCCNC(=O)COCCOCCNC(=O)COCCOCCNC(=O)CC[C@H](NC(=O)CCCCCCCCCCCCCCCCC(=O)O)C(=O)O)NC(=O)[C@H](CCC(N)=O)NC(=O)[C@H](C)NC(=O)[C@@H](NC(=O)[C@H](CCCCN)NC(=O)[C@H](CC(=O)O)NC(=O)[C@H](CC(C)C)NC(=O)C(C)(C)NC(=O)[C@@H](NC(=O)[C@H](CO)NC(=O)[C@H](Cc1ccc(O)cc1)NC(=O)[C@H](CC(=O)O)NC(=O)[C@H](CO)NC(=O)[C@@H](NC(=O)[C@H](Cc1ccccc1)NC(=O)[C@@H](NC(=O)CNC(=O)[C@H](CCC(=O)O)NC(=O)C1(NC(=O)[C@@H](N)Cc2ccc(O)cc2)CCC1)[C@@H](C)O)[C@@H](C)O)[C@@H](C)CC)[C@@H](C)CC)C(C)C)C(=O)N[C@@H](C)C(=O)NCC(=O)NCC(=O)N1CCC[C@H]1C(=O)N[C@@H](CO)C(=O)N[C@@H](CO)C(=O)NCC(=O)N[C@@H](C)C(=O)N1CCC[C@H]1C(=O)N1CCC[C@H]1C(=O)N1CCC[C@H]1C(=O)N[C@@H](CO)C(N)=O` [ID NO: 7], the pEC50 (mGLP-1R) was 11.26 and the pEC50 (mGIPR) was 11.12.

`CC[C@H](C)[C@H](NC(=O)[C@H](CC(C)C)NC(=O)[C@H](Cc1c[nH]c2ccccc12)NC(=O)[C@H](CCC(N)=O)NC(=O)[C@@H](NC(=O)[C@H](Cc1ccccc1)NC(=O)[C@H](C)NC(=O)[C@H](CCCCNC(=O)COCCOCCNC(=O)COCCOCCNC(=O)CC[C@H](NC(=O)CCCCCCCCCCCCCCCCC(=O)O)C(=O)O)NC(=O)[C@H](CCC(N)=O)NC(=O)[C@H](C)NC(=O)[C@@H](NC(=O)[C@H](CCCCN)NC(=O)[C@H](CC(=O)O)NC(=O)[C@H](CC(C)C)NC(=O)C(C)(C)NC(=O)[C@@H](NC(=O)[C@H](CO)NC(=O)[C@H](Cc1ccc(O)cc1)NC(=O)[C@H](CC(=O)O)NC(=O)[C@H](CO)NC(=O)[C@@H](NC(=O)[C@H](Cc1ccccc1)NC(=O)[C@@H](NC(=O)CNC(=O)[C@H](CCC(=O)O)NC(=O)C1(NC(=O)[C@@H](N)Cc2ccc(O)cc2)CCCC1)[C@@H](C)O)[C@@H](C)O)[C@@H](C)CC)[C@@H](C)CC)C(C)C)C(=O)N[C@@H](C)C(=O)NCC(=O)NCC(=O)N1CCC[C@H]1C(=O)N[C@@H](CO)C(=O)N[C@@H](CO)C(=O)NCC(=O)N[C@@H](C)C(=O)N1CCC[C@H]1C(=O)N1CCC[C@H]1C(=O)N1CCC[C@H]1C(=O)N[C@@H](CO)C(N)=O` [ID NO: 9] gave a pEC50 (mGLP-1R) of 11.03 and a pEC50 (mGIPR) of 11.16.

From US20220251163A1 (Sinopep-Allsino Biopharmaceutical Co., Ltd., priority 2019, published 2022)
